Laboratory results: ChEMBL document CHEMBL4715850, “Exploiting binding-site arginines in drug design: Recent examples” (Bioorg Med Chem Lett, 2020)

Molecular target: S-adenosylmethionine synthase isoform type-2 (Homo sapiens, UniProt P31153)
Experiment: Allosteric inhibition of MAT2A (unknown origin) expressed in Escherichia coli BL21(DE3) assessed as reduction in S-adenosyl-methionine formation using methionine as substrate in presence of ATP by ELISA

Chain of S-adenosylmethionine synthase isoform type-2 (P31153 whole entry, canonical isoform): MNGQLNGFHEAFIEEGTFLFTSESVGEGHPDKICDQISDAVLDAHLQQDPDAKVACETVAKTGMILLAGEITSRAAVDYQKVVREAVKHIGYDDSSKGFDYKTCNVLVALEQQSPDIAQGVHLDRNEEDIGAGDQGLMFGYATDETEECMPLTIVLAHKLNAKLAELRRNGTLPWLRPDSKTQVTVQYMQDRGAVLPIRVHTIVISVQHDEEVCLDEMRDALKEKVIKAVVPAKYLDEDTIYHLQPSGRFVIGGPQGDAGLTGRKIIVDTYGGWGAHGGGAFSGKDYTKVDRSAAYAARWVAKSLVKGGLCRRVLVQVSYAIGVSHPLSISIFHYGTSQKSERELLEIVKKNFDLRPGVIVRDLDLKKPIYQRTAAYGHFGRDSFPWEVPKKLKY

IC50: 283 nM
Compound: COc1ccc2c(=O)c(C)c(-c3ccnc(-c4ccc(OC(F)(F)F)cc4)c3)[nH]c2c1
